Earlier results in paper PMC3877923 (Journal of the American Chemical Society, 2013).
Marks after values point to notes of the source that are not given here.

- Aqueous solubility S: << 1 ^b µg/mL
Compound: Cc1cc(C#N)cc(C)c1Oc1nc(Nc2ccc(C#N)cc2)nc(N)c1Br [etravirine]
